PubChem BioAssay AID1745844 (Carcinogenic Potency Database (CPDB), 2022)

Tested on: rodent lifetime carcinogenesis bioassay, tumor incidence TD50
Assay: chronic cancer bioassays in animals – CPDB, compiled studies (AID 1745844)
Settings: inhaled

## C=CCl
hamster, strain Syrian Golden, females, site: all sites, lesion: hemangiosarcoma, dosed 26 weeks, study length 104 weeks
  TD50: 78.6 mg/kg/day
hamster, strain Syrian Golden, females, site: all sites, lesion: hemangiosarcoma, dosed 52 weeks, study length 104 weeks
  TD50: 314 mg/kg/day
hamster, strain Syrian Golden, females, site: all sites, lesion: hemangiosarcoma, dosed 78 weeks, study length 104 weeks
  TD50: 1920 mg/kg/day
hamster, strain Syrian Golden, females, site: mammary gland, lesion: carcinoma, dosed 26 weeks, study length 104 weeks
  TD50: 32.3 mg/kg/day
hamster, strain Syrian Golden, females, site: mammary gland, lesion: carcinoma, dosed 52 weeks, study length 104 weeks
  TD50: 27.7 mg/kg/day
hamster, strain Syrian Golden, females, site: mammary gland, lesion: carcinoma, dosed 78 weeks, study length 104 weeks
  TD50: 61 mg/kg/day
hamster, strain Syrian Golden, females, site: skin, lesion: carcinoma, dosed 52 weeks, study length 104 weeks
  TD50: 121 mg/kg/day
hamster, strain Syrian Golden, females, site: stomach, lesion: adenoma, dosed 26 weeks, study length 104 weeks
  TD50: 47.2 mg/kg/day
hamster, strain Syrian Golden, females, site: stomach, lesion: adenoma, dosed 52 weeks, study length 104 weeks
  TD50: 1010 mg/kg/day
hamster, strain Syrian Golden, females, site: stomach, lesion: adenoma, dosed 78 weeks, study length 104 weeks
  TD50: 205 mg/kg/day
hamster, strain Syrian Golden, males, site: acoustic duct, lesion: epithelioma, dosed 30 weeks, study length 101 weeks
  TD50: 855 mg/kg/day
hamster, strain Syrian Golden, males, site: all sites, lesion: leukemia, dosed 30 weeks, study length 101 weeks
  TD50: 25800 mg/kg/day
hamster, strain Syrian Golden, males, site: extrahepatic tissue, lesion: angioma, dosed 30 weeks, study length 101 weeks
  TD50: 9800 mg/kg/day
hamster, strain Syrian Golden, males, site: forestomach, lesion: epithelioma, dosed 30 weeks, study length 101 weeks
  TD50: 55 mg/kg/day
hamster, strain Syrian Golden, males, site: liver, lesion: angioma, dosed 30 weeks, study length 101 weeks
  TD50: 2380 mg/kg/day
hamster, strain Syrian Golden, males, site: liver, lesion: angiosarcoma, dosed 30 weeks, study length 101 weeks
  TD50: 91800 mg/kg/day
hamster, strain Syrian Golden, males, site: liver, lesion: hepatoma, dosed 30 weeks, study length 101 weeks
  TD50: 1730 mg/kg/day
hamster, strain Syrian Golden, males, site: skin, lesion: epithelioma, dosed 30 weeks, study length 101 weeks
  TD50: 9350 mg/kg/day
hamster, strain Syrian Golden, males, site: skin, lesion: melanoma, dosed 30 weeks, study length 101 weeks
  TD50: 7630 mg/kg/day
mouse, strain Charles River CD1, females, site: liver, lesion: hemangiosarcoma, dosed 26 weeks, study length 58 weeks
  TD50: 91.9 mg/kg/day
mouse, strain Charles River CD1, females, site: lung, lesion: alveolar/bronchiolar tumor, dosed 26 weeks, study length 58 weeks
  TD50: 142 mg/kg/day
mouse, strain Charles River CD1, females, site: mammary gland, lesion: malignant tumor, dosed 26 weeks, study length 58 weeks
  TD50: 249 mg/kg/day
mouse, strain Charles River CD1, males, site: liver, lesion: hemangiosarcoma, dosed 26 weeks, study length 78 weeks
  TD50: 32 mg/kg/day
mouse, strain Charles River CD1, males, site: lung, lesion: alveolar/bronchiolar tumor, dosed 26 weeks, study length 78 weeks
  TD50: 88.7 mg/kg/day
mouse, strain Swiss, females, site: all sites, lesion: hemangiosarcoma, dosed 26 weeks, study length 104 weeks
  TD50: 12.5 mg/kg/day
mouse, strain Swiss, females, site: all sites, lesion: hemangiosarcoma, dosed 52 weeks, study length 104 weeks
  TD50: 13.8 mg/kg/day
mouse, strain Swiss, females, site: all sites, lesion: hemangiosarcoma, dosed 78 weeks, study length 104 weeks
  TD50: 36.1 mg/kg/day
mouse, strain Swiss, females, site: any site (literature study), lesion: several types, types named in the paper, dosed 30 weeks, study length 77 weeks
  TD50: 600 mg/kg/day
mouse, strain Swiss, females, site: extrahepatic tissue, lesion: angioma, dosed 30 weeks, study length 77 weeks
  TD50: 70900 mg/kg/day
mouse, strain Swiss, females, site: extrahepatic tissue, lesion: angiosarcoma, dosed 30 weeks, study length 77 weeks
  TD50: 736 mg/kg/day
mouse, strain Swiss, females, site: forestomach, lesion: epithelioma, dosed 30 weeks, study length 77 weeks
  TD50: 9820 mg/kg/day
mouse, strain Swiss, females, site: liver, lesion: angioma, dosed 30 weeks, study length 77 weeks
  TD50: 196 mg/kg/day
mouse, strain Swiss, females, site: liver, lesion: angiosarcoma, dosed 30 weeks, study length 77 weeks
  TD50: 98.8 mg/kg/day
mouse, strain Swiss, females, site: liver, lesion: hepatoma, dosed 30 weeks, study length 77 weeks
  TD50: 12200 mg/kg/day
mouse, strain Swiss, females, site: lung, lesion: adenoma, dosed 30 weeks, study length 77 weeks
  TD50: 402 mg/kg/day
mouse, strain Swiss, females, site: lung, lesion: carcinoma, dosed 26 weeks, study length 104 weeks
  TD50: 36.6 mg/kg/day
mouse, strain Swiss, females, site: lung, lesion: carcinoma, dosed 52 weeks, study length 104 weeks
  TD50: 55.5 mg/kg/day
mouse, strain Swiss, females, site: lung, lesion: carcinoma, dosed 78 weeks, study length 104 weeks
  TD50: 143 mg/kg/day
mouse, strain Swiss, females, site: mammary gland, lesion: carcinoma, dosed 26 weeks, study length 104 weeks
  TD50: 10.6 mg/kg/day
mouse, strain Swiss, females, site: mammary gland, lesion: carcinoma, dosed 30 weeks, study length 77 weeks
  TD50: 3750 mg/kg/day
mouse, strain Swiss, females, site: mammary gland, lesion: carcinoma, dosed 52 weeks, study length 104 weeks
  TD50: 22.9 mg/kg/day
mouse, strain Swiss, females, site: mammary gland, lesion: carcinoma, dosed 78 weeks, study length 104 weeks
  TD50: 32.2 mg/kg/day
mouse, strain Swiss, females, site: skin, lesion: epithelioma, dosed 30 weeks, study length 77 weeks
  TD50: 25100 mg/kg/day
mouse, strain Swiss, males, site: any site (literature study), lesion: several types, types named in the paper, dosed 30 weeks, study length 77 weeks
  TD50: 26.1 mg/kg/day
mouse, strain Swiss, males, site: extrahepatic tissue, lesion: angioma, dosed 30 weeks, study length 77 weeks
  TD50: 12300 mg/kg/day
mouse, strain Swiss, males, site: extrahepatic tissue, lesion: angiosarcoma, dosed 30 weeks, study length 77 weeks
  TD50: 8030 mg/kg/day
mouse, strain Swiss, males, site: forestomach, lesion: epithelioma, dosed 30 weeks, study length 77 weeks
  TD50: 5190 mg/kg/day
mouse, strain Swiss, males, site: liver, lesion: angioma, dosed 30 weeks, study length 77 weeks
  TD50: 1080 mg/kg/day
mouse, strain Swiss, males, site: liver, lesion: angiosarcoma, dosed 30 weeks, study length 77 weeks
  TD50: 70.8 mg/kg/day
mouse, strain Swiss, males, site: liver, lesion: hepatoma, dosed 30 weeks, study length 77 weeks
  TD50: 25200 mg/kg/day
mouse, strain Swiss, males, site: lung, lesion: adenoma, dosed 30 weeks, study length 77 weeks
  TD50: 14 mg/kg/day
mouse, strain Swiss, males, site: skin, lesion: epithelioma, dosed 30 weeks, study length 77 weeks
  TD50: 2690 mg/kg/day
